According to patent US10428044B2, “3-amino-1,5,6,7-tetrahydro-4H-indol-4-ones” (Bayer Pharma Aktiengesellschaft, priority 2014, dated 2019):

Biological target: (recombinant) catalytic domain of human Bub1 (amino acids 704-1085) (Homo sapiens (Human), UniProt O43683)
Test: Bub1 kinase assay (TR-FRET)
Assay type: biochemical
Conditions: ATP 10 μM final, peptide substrate 1 μM final, 60 min at 22° C., read-out: Biological Assay: Bub1 kinase assay median IC50
Experimental: Examples were tested in selected biological assays one or more times. When tested more than once, data are reported as either average values or as median values, wherein • the average value, also referred to as the arithmetic mean value, represents the sum of the values obtained divided by the number of times tested, and • the median value represents the middle number of the group of values when ranked in ascending or descending order. If the number of values in the data set is odd, the median is the middle value. If the number of values in the data set is even, the median is the arithmetic mean of the two middle values.
To this end, 100-fold concentrated compound solutions (in DMSO) were previously prepared by serial dilution (1:3.4) of 2 mM stocks in a clear low volume 384-well source microtiter plate (Greiner Bio-One, Frickenhausen, Germany), from which 50 nl of compounds were transferred into a black low volume test microtiter plate from the same supplier. […] The resulting mixture (5 μL final volume) was incubated at 22° C. during 60 min., and the reaction was stopped by the addition of 5 μL of an aqueous EDTA-solution (50 mM EDTA, in 100 mM HEPES pH 7.5 and 0.2% (w/v) bovine serum albumin) which also contained the TR-FRET detection reagents (0.2 μM streptavidin-XL665 [Cisbio Bioassays, Codolet, France] and 1 nM anti-phosho-Serine antibody [Merck Millipore, cat. #35-002] and 0.4 nM LANCE EU-W1024 labeled anti-mouse IgG antibody [Perkin-Elmer, product no. AD0077, alternatively a Terbium-cryptate-labeled anti-mouse IgG antibody from Cisbio Bioassays can be used]). The stopped reaction mixture was further incubated 1 h at 22° C. in order to allow the formation of complexes between peptides and detection reagents. Subsequently, the amount of product was evaluated by measurement of the resonance energy transfer from the Eu-chelate-antibody complex recognizing the Phosphoserine residue to the streptavidin-XL665 bound to the biotin moiety of the peptide. […] The data were normalised using two sets of control wells for high- (=enzyme reaction without inhibitor=0%=Minimum inhibition) and low- (=all assay components without enzyme=100%=Maximum inhibition) Bub1 activity. IC50 values were calculated by fitting the normalized inhibition data to a 4-parameter logistic equation (Minimum, Maximum, IC50, Hill; Y=Max+(Min−Max)/(1+(X/IC50)Hill)).

Sequence of (recombinant) catalytic domain of human Bub1 (amino acids 704-1085) (O43683 704-1085): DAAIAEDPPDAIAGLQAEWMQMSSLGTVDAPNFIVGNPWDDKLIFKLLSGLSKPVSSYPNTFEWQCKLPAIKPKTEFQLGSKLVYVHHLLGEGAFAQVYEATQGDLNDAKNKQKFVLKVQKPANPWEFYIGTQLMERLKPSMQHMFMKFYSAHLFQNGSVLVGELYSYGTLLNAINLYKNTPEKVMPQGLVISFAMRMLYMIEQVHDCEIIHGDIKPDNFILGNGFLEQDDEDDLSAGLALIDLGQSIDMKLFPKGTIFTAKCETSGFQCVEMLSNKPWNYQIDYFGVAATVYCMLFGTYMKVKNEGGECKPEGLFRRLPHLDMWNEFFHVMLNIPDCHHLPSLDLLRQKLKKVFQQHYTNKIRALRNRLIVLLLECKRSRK

| Compound | IC50 [nM] |
| --- | --- |
| CC(=O)Nc1cc(-c2[nH]c3c(c2Nc2ccccc2)C(=O)CC(CCl)C3)ccn1 (centres unmarked) [Example 444, N-{4-[6-(chloromethyl)-4-oxo-3-(phenylamino)-4,5,6,7-tetrahydro-1H-indol-2-yl]pyridin-2-yl}acetamide] | 4.61 |
| CC1(C)CC(=O)c2c([nH]c(-c3ccncc3)c2Nc2ccccc2F)C1 [Example 60, 3-[(2-fluorophenyl)amino]-6,6-dimethyl-2-(pyridin-4-yl)-1,5,6,7-tetrahydro-4H-indol-4-one] | 95.2 |
| CC1(C)CC(=O)c2c([nH]c(-c3ccncc3)c2Nc2ccc(Br)cc2)C1 [Example 72, 3-[(4-bromophenyl)amino]-6,6-dimethyl-2-(pyridin-4-yl)-1,5,6,7-tetrahydro-4H-indol-4-one] | 47.1 |
| CC1(C)CC(=O)c2c([nH]c(-c3ccnc(N4CCOCC4)c3)c2Nc2ccccc2)C1 [Example 127, 6,6-dimethyl-2-[2-(morpholin-4-yl)pyridin-4-yl]-3-(phenylamino)-1,5,6,7-tetrahydro-4H-indol-4-one] | 7750 |
| Cc1cc(F)cc(Nc2c(-c3ccncc3)[nH]c3c2C(=O)CC(C)(C)C3)c1 [Example 14, 3-[(3-fluoro-5-methylphenyl)amino]-6,6-dimethyl-2-(pyridin-4-yl)-1,5,6,7-tetrahydro-4H-indol-4-one] | 10.8 |
| CC1(C)CC(=O)c2c([nH]c(-c3ccncc3)c2Nc2ccccc2C(C)(C)O)C1 [Example 488, 3-{[2-(2-hydroxypropan-2-yl)phenyl]amino}-6,6-dimethyl-2-(pyridin-4-yl)-1,5,6,7-tetrahydro-4H-indol-4-one] | 39.1 |
| O=C(Nc1cc(-c2[nH]c3c(c2Nc2ccccc2)C(=O)CCC3)ccn1)c1cscn1 [Example 271, N-{4-[4-oxo-3-(phenylamino)-4,5,6,7-tetrahydro-1H-indol-2-yl]pyridin-2-yl}-1,3-thiazole-4-carboxamide] | 7.64 |
| CC(C)[C@H]1CC(=O)c2c([nH]c(-c3ccnc(N)c3)c2Nc2ccc(F)cc2)C1 (stereo in doubt) [Example 167, 2-(2-aminopyridin-4-yl)-3-[(4-fluorophenyl)amino]-6-(propan-2-yl)-1,5,6,7-tetrahydro-4H-indol-4-one] | 53.1 |
| CC1(C)CC(=O)c2c([nH]c(-c3ccncc3)c2Nc2ccc3[nH]ncc3c2)C1 [Example 100, 3-(1H-indazol-5-ylamino)-6,6-dimethyl-2-(pyridin-4-yl)-1,5,6,7-tetrahydro-4H-indol-4-one] | 95.2 |
| O=C1CC(C(F)(F)F)Cc2[nH]c(-c3ccncc3)c(Nc3ccccc3)c21 (single isomer, unassigned) [Example 440, 3-(phenylamino)-2-(pyridin-4-yl)-6-(trifluoromethyl)-1,5,6,7-tetrahydro-4H-indol-4-one] | 12.9 |
| CC(C)(F)C(=O)Nc1cc(-c2[nH]c3c(c2Nc2ccccc2)C(=O)CCC3)ccn1 [Example 242, 2-fluoro-2-methyl-N-{4-[4-oxo-3-(phenylamino)-4,5,6,7-tetrahydro-1H-indol-2-yl]pyridin-2-yl}propanamide] | 182 |
| CCOc1cc(F)ccc1Nc1c(-c2ccncc2)[nH]c2c1C(=O)CC(C)(C)C2 [Example 125, 3-[(2-ethoxy-4-fluorophenyl)amino]-6,6-dimethyl-2-(pyridin-4-yl)-1,5,6,7-tetrahydro-4H-indol-4-one] | 454 |
| CC(=O)O/N=C1\CC(C)(C)Cc2[nH]c(-c3ccncc3)c(Nc3ccccc3)c21 [Example 195, 1-({(E)-[6,6-dimethyl-3-(phenylamino)-2-(pyridin-4-yl)-1,5,6,7-tetrahydro-4H-indol-4-ylidene]amino}oxy)ethanone] | 102 |
| CC1(C)CC(=O)c2c([nH]c(-c3ccncc3)c2Nc2cccc(O)c2)C1 [Example 89, 3-[(3-hydroxyphenyl)amino]-6,6-dimethyl-2-(pyridin-4-yl)-1,5,6,7-tetrahydro-4H-indol-4-one] | 288 |
| O=C1CCCc2[nH]c(-c3cc(Cl)nc(Cl)c3)c(Nc3ccccc3)c21 [Example 217, 2-(2,6-dichloropyridin-4-yl)-3-(phenylamino)-1,5,6,7-tetrahydro-4H-indol-4-one] | > 20000 |
| O=C1CC2(CC2)Cc2[nH]c(-c3ccnc(NC(=O)[C@H]4C[C@@H]4F)c3)c(Nc3ccccc3)c21 (relative stereo) [Example 466, rel-(R,S)-2-fluoro-N-{4-[4′-oxo-3′-(phenylamino)-1′,4′,5′,7′-tetrahydrospiro[cyclopropane-1,6′-indol]-2′-yl]pyridin-2-yl}cyclopropanecarboxamide] | 5.03 |
| O=C1CCCc2[nH]c(-c3ccnc(NC(=S)NCC4CC4)c3)c(Nc3ccccc3)c21 [Example 398, 1-(cyclopropylmethyl)-3-{4-[4-oxo-3-(phenylamino)-4,5,6,7-tetrahydro-1H-indol-2-yl]pyridin-2-yl}thiourea] | 552 |
| CC(C)Nc1cnccc1-c1[nH]c2c(c1Nc1ccccc1)C(=O)CCC2 [Example 376, 3-(phenylamino)-2-[3-(propan-2-ylamino)pyridin-4-yl]-1,5,6,7-tetrahydro-4H-indol-4-one] | 2510 |
| C[S+]([O-])c1cnccc1-c1[nH]c2c(c1Nc1ccccc1)C(=O)CC(C)(C)C2 (centres unmarked) [Example 202, {4-[6,6-dimethyl-4-oxo-3-(phenylamino)-4,5,6,7-tetrahydro-1H-indol-2-yl]pyridin-3-yl}(methyl)sulfoniumolate] | 1990 |
| O=C(COCc1ccco1)Nc1cc(-c2[nH]c3c(c2Nc2ccccc2)C(=O)CCC3)ccn1 [Example 352, 2-(furan-2-ylmethoxy)-N-{4-[4-oxo-3-(phenylamino)-4,5,6,7-tetrahydro-1H-indol-2-yl]pyridin-2-yl}acetamide] | 6.68 |
| CC1(C)CC(=O)c2c([nH]c(-c3ccncc3)c2Nc2ccccc2Cc2ccccc2)C1 [Example 416, 3-[(2-benzylphenyl)amino]-6,6-dimethyl-2-(pyridin-4-yl)-1,5,6,7-tetrahydro-4H-indol-4-one] | 689 |
| CC1(C)CC(=O)c2c([nH]c(-c3ccncc3)c2Nc2ccc(Oc3ccccc3)cc2)C1 [Example 514, 6,6-dimethyl-3-[(4-phenoxyphenyl)amino]-2-(pyridin-4-yl)-1,5,6,7-tetrahydro-4H-indol-4-one] | > 20000 |
| C#CCOCC(=O)Nc1cc(-c2[nH]c3c(c2Nc2ccccc2)C(=O)CCC3)ccn1 [Example 336, N-{4-[4-oxo-3-(phenylamino)-4,5,6,7-tetrahydro-1H-indol-2-yl]pyridin-2-yl}-2-(prop-2-yn-1-yloxy)acetamide] | 8.53 |
| O=C(Nc1cc(-c2[nH]c3c(c2Nc2ccccc2)C(=O)CCC3)ccn1)c1cnn[nH]1 [Example 281, N-{4-[4-oxo-3-(phenylamino)-4,5,6,7-tetrahydro-1H-indol-2-yl]pyridin-2-yl}-1H-1,2,3-triazole-5-carboxamide] | 11.2 |
| CC1(C)CC(=O)c2c([nH]c(-c3ccncc3)c2Nc2ccc3occc3c2)C1 [Example 67, 3-(1-benzofuran-5-ylamino)-6,6-dimethyl-2-(pyridin-4-yl)-1,5,6,7-tetrahydro-4H-indol-4-one] | 87.1 |
| CC1(C)CC(=O)c2c([nH]c(-c3ccncc3)c2Nc2cc(F)cc(Cl)c2)C1 [Example 19, 3-[(3-chloro-5-fluorophenyl)amino]-6,6-dimethyl-2-(pyridin-4-yl)-1,5,6,7-tetrahydro-4H-indol-4-one] | 19.5 |
